ChEMBL document CHEMBL4840336, “Discovery, Optimization, and Structure-Activity Relationship Study of Novel and Potent RSK4 Inhibitors as Promising Agents for the Treatment of Esophageal Squamous Cell Carcinoma” (J Med Chem, 2021)
Active and inactive are the calls of the source. No cut-off for these calls is given here.

What was measured:
TE-10 [1] = experiment: Antitumor activity against human TE-10 cells xenografed in nude mouse assessed as tumor growth inhibition at 50 mg/kg, ip administered for 20 consecutive days by caliper method relative to control; type: functional; conditions: TE-10, ip, 480 h, time 20 day, read-out: TGI
[2] = target: T1, Ribosomal protein S6 kinase alpha-1 (Homo sapiens, UniProt Q15418); experiment: Inhibition of full length recombinant His-tagged human RSK1 expressed in baculovirus expression system using biotin-labelled AGAGRSRHSSYPAGT-OH as substrate in presence of ATP
[3] = target: T2, Ribosomal protein S6 kinase alpha-3 (Homo sapiens, UniProt P51812); experiment: Inhibition of full length recombinant His-tagged human RSK2 expressed in baculovirus expression system using biotin-labelled AGAGRSRHSSYPAGT-OH as substrate in presence of ATP
[4] = target: T3, Ribosomal protein S6 kinase alpha-2 (Homo sapiens, UniProt Q15349); experiment: Inhibition of full length recombinant GST-tagged human RSK3 expressed in insect cell using biotin-labelled AGAGRSRHSSYPAGT-OH as substrate in presence of ATP
[5] = target: T1, Ribosomal protein S6 kinase alpha-1; experiment: Inhibition of RSK1 in human TE-10 cells assessed as suppression of EIF4B phosphorylation at 1 to 10 uM measured after 24 hrs by Western blot analysis; type: cell-based; conditions: dose 1-10 µM
[6] = target: T1, Ribosomal protein S6 kinase alpha-1; experiment: Inhibition of RSK1 in human TE-10 cells assessed as suppression of P27KIP1 phosphorylation at 1 to 10 uM measured after 24 hrs by Western blot analysis; type: cell-based; conditions: dose 1-10 µM
[7] = target: T2, Ribosomal protein S6 kinase alpha-3; experiment: Inhibition of RSK2 in human TE-10 cells assessed as suppression of creb-phosphorylation at 1 to 10 uM measured after 24 hrs by Western blot analysis; type: cell-based; conditions: dose 1-10 µM
[8] = target: T2, Ribosomal protein S6 kinase alpha-3; experiment: Inhibition of RSK2 in human TE-10 cells assessed as suppression of HSP27 at residue 32 phosphorylation at 1 to 10 uM measured after 24 hrs by Western blot analysis; type: cell-based; conditions: dose 1-10 µM
[9] = target: T2, Ribosomal protein S6 kinase alpha-3; experiment: Inhibition of RSK2 in human TE-10 cells assessed as suppression of HSP27 at residue 33 phosphorylation at 1 to 10 uM measured after 24 hrs by Western blot analysis; type: cell-based; conditions: dose 1-10 µM
[10] = target: T3, Ribosomal protein S6 kinase alpha-2; experiment: Inhibition of RSK3 in human TE-10 cells assessed as suppression of c-fos phosphorylation at 1 to 10 uM measured after 24 hrs by Western blot analysis; type: cell-based; conditions: dose 1-10 µM
[11] = target: T3, Ribosomal protein S6 kinase alpha-2; experiment: Inhibition of RSK3 in human TE-10 cells assessed as suppression of HistoneH3 phosphorylation at residue 34 at 1 to 10 uM measured after 24 hrs by Western blot analysis; type: cell-based; conditions: dose 1-10 µM
[12] = target: T3, Ribosomal protein S6 kinase alpha-2; experiment: Inhibition of RSK3 in human TE-10 cells assessed as suppression of HistoneH3 phosphorylation at residue 35 at 1 to 10 uM measured after 24 hrs by Western blot analysis; type: cell-based; conditions: dose 1-10 µM
[13] = target: T1, Ribosomal protein S6 kinase alpha-1; experiment: Inhibition of RSK1 (unknown origin) at 100 nM relative to control
[14] = target: T2, Ribosomal protein S6 kinase alpha-3; experiment: Inhibition of RSK2 (unknown origin) at 100 nM relative to control
[15] = target: T3, Ribosomal protein S6 kinase alpha-2; experiment: Inhibition of RSK3 (unknown origin) at 100 nM relative to control
TE-10 [16] = experiment: Inhibition of cell invasion in human TE-10 cells measured after 24 hrs by Giemsa staining based transwell invasion assay; type: functional; conditions: TE-10, 24 h
TE-10 [17] = experiment: Antiproliferative activity against human TE-10 cells assessed as inhibition of cell proliferation measured up to 48 hrs by CCK-8 assay; type: functional, cell-based
TE-10 [18] = experiment: Antitumor activity against human TE-10 cells xenografed in nude mouse assessed as tumor growth inhibition at 25 mg/kg, ip administered for 20 consecutive days by caliper method relative to control; type: functional; conditions: TE-10, ip, 480 h, time 20 day, read-out: TGI
Mus musculus [19] = experiment: In vivo inhibition of RSK4 in nude mouse xenografted with human TE-10 cells assessed as suppression of RPS6 phosphorylation at 25 to 50 mg/kg, ip administered for 20 consecutive days; type: functional, organism-based; conditions: dose lower […], dose upper 50.0 mg/kg, time 20.0 day
Mus musculus [20] = experiment: In vivo inhibition of RSK4 in nude mouse xenografted with human TE-10 cells assessed as suppression of GSK3beta phosphorylation at 25 to 50 mg/kg, ip administered for 20 consecutive days; type: functional, organism-based; conditions: dose lower […], dose upper 50.0 mg/kg, time 20.0 day
[21] = Toxicity in nude mouse xenografted with human TE-10 cells assessed as effect on body weight loss at 25 to 50 mg/kg, ip administered for 20 consecutive days; type: organism-based; conditions: in vivo, 480 h, dose 25-50 mg/kg, time 20 day
[22] = Toxicity in nude mouse xenografted with human TE-10 cells assessed as effect on organ damage at 25 to 50 mg/kg, ip administered for 20 consecutive days; type: organism-based; conditions: in vivo, 480 h, dose 25-50 mg/kg, time 20 day
[23] = Toxicity in nude mouse xenografted with human TE-10 cells assessed as morphological changes in liver at 25 to 50 mg/kg, ip administered for 20 consecutive days by hematoxylin-eosin staining based analysis; type: organism-based; conditions: in vivo, 480 h, dose 25-50 mg/kg, time 20 day
[24] = Toxicity in nude mouse xenografted with human TE-10 cells assessed as morphological changes in lung at 25 to 50 mg/kg, ip administered for 20 consecutive days by hematoxylin-eosin staining based analysis; type: organism-based; conditions: in vivo, 480 h, dose 25-50 mg/kg, time 20 day
[25] = Toxicity in nude mouse xenografted with human TE-10 cells assessed as morphological changes in kidney at 25 to 50 mg/kg, ip administered for 20 consecutive days by hematoxylin-eosin staining based analysis; type: organism-based; conditions: in vivo, 480 h, dose 25-50 mg/kg, time 20 day
[26] = Toxicity in nude mouse xenografted with human TE-10 cells assessed as morphological changes in heart at 25 to 50 mg/kg, ip administered for 20 consecutive days by hematoxylin-eosin staining based analysis; type: organism-based; conditions: in vivo, 480 h, dose 25-50 mg/kg, time 20 day
[27] = Clearance in iv dosed Sprague-Dawley rat; type: ADME, organism-based; conditions: in vivo
[28] = Half life in iv dosed Sprague-Dawley rat; type: ADME, organism-based; conditions: in vivo
[29] = Volume of distribution at steady state in iv dosed Sprague-Dawley rat; type: ADME, organism-based; conditions: in vivo, read-out: Vdss

T2 sequence (P51812 whole entry): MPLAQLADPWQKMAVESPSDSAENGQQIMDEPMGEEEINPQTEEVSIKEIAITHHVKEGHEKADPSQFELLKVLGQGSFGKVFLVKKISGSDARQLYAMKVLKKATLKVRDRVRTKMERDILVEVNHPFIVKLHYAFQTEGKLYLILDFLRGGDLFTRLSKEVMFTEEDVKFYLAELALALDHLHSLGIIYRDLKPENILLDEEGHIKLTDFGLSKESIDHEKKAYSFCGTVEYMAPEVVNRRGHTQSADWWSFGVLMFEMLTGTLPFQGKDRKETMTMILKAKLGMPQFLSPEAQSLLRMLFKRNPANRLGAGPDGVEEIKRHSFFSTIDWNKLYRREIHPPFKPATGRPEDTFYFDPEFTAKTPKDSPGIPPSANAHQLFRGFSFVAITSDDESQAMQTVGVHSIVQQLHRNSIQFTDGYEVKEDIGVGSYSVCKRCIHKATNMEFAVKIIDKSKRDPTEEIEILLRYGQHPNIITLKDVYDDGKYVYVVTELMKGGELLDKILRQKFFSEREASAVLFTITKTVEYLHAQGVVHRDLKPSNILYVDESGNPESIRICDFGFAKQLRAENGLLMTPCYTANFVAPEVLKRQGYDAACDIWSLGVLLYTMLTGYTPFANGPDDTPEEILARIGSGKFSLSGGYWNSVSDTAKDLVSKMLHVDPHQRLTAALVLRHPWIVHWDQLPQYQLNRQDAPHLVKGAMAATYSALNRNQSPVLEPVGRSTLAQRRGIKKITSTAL
T1 sequence (Q15418 whole entry): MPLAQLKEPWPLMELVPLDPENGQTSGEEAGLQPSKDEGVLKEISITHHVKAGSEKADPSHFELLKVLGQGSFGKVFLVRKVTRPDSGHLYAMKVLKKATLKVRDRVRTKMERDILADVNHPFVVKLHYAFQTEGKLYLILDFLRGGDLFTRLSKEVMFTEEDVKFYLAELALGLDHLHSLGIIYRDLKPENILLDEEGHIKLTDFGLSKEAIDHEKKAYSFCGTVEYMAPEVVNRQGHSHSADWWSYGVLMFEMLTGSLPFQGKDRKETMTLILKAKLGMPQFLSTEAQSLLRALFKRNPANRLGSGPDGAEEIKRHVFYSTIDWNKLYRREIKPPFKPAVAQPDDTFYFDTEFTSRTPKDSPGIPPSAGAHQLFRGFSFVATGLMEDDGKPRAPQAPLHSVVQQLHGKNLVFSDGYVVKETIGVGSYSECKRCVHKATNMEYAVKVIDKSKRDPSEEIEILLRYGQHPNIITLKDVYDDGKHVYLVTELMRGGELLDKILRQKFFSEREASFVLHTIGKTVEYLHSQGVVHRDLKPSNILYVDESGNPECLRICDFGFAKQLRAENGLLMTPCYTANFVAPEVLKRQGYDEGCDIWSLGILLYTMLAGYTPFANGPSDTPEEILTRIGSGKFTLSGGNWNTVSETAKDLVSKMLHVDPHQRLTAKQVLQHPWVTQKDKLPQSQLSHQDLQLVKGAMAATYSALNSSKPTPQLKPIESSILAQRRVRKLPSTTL
T3 sequence (Q15349 whole entry): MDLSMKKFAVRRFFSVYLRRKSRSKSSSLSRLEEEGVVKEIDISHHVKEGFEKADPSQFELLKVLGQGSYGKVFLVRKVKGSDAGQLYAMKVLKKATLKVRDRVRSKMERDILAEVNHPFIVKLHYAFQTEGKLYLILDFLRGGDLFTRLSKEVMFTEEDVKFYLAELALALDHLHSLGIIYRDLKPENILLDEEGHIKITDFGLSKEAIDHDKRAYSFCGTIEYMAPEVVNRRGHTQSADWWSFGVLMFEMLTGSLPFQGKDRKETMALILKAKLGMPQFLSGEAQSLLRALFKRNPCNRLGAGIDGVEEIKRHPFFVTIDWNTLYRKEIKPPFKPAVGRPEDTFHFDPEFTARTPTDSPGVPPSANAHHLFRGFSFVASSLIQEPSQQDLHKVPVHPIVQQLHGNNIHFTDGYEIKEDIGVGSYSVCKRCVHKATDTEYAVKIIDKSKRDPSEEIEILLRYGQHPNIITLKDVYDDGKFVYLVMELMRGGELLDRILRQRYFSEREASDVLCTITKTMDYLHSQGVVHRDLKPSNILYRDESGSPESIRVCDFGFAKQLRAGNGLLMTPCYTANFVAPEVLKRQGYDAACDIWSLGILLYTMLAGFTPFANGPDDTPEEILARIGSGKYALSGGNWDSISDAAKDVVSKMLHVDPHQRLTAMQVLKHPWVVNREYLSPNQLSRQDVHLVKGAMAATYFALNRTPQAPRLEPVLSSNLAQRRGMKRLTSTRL

Structure (SMILES): CC(C)CCN1c2nc(Nc3cc(F)c(O)c(F)c3)ncc2N(C)C(=O)C1C (centres undefined)
- inhibition in vivo at 50 mg/kg (TE-10 [1]): 41.6%

Structure (SMILES): CN1CCN(c2ccc(-c3ccncc3-c3cc(F)c(O)c(F)c3)cc2)CC1
- IC50 [2]: 6 nM
- IC50 [3]: 4 nM
- IC50 [4]: 4 nM

Structure (SMILES): CC(C)C1OC(=O)N(C2CCCC2)c2nc(Nc3cc(F)c(O)c(F)c3)ncc21 (centres undefined)
- inhibition [5]: inactive
- inhibition [6]: inactive
- inhibition [7]: inactive
- inhibition [8]: inactive
- inhibition [9]: inactive
- inhibition [10]: inactive
- inhibition [11]: inactive
- inhibition [12]: inactive
- inhibition [13]: > 90%
- inhibition [14]: > 90%
- inhibition [15]: > 90%
- IC50 (TE-10 [16]): 983 nM
- IC50 (TE-10 [17]; TE-10, 48 h): 570 nM
- inhibition (TE-10 [17]; time hrs <=48): Dose-Dependent Effect
- inhibition in vivo at 25 mg/kg (TE-10 [18]): 73.4%
- inhibition in vivo at 50 mg/kg (TE-10 [1]): 48.7%
- inhibition (Mus musculus [19]): inactive
- inhibition (Mus musculus [20]): inactive
- Activity [21]: Non-Toxic
- Activity [22]: Non-Toxic
- Activity [23]: Non-Toxic
- Activity [24]: Non-Toxic
- Activity [25]: Non-Toxic
- Activity [26]: Non-Toxic
- clearance [27]: 67.5 mL/min/kg
- half-life [28]: 55.2 min
- Vd [29]: 1.28 L/kg

Structure (SMILES): Oc1c(F)cc(-c2cnccc2-c2ccc(N3CCOCC3)cc2)cc1F
- IC50 [2]: 5 nM
- IC50 [3]: 6 nM
- IC50 [4]: 13 nM
